Assay results published in the supplement of paper PMC11616607.

What was measured:
Experiment in all cases: drug sensitivity score (DSS) from 5-point dose-response viability curve (DSS (area-under-curve based score)); higher = more sensitive (stronger growth inhibition or killing); extreme values may be limits of the assay
Details in all cases: exposure time: 72 h; concentration range: 5 concentrations over 10,000-fold range
HOSE1C = tested on: HOSE1C
How it was run: (§1)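 Drug sensitivity scores were calculated in Breeze software for each cell line and drug pair; higher scores indicate more sensitivity. A score of zero indicates no response. The underlying assay used 384-well plates: drugs were placed by an Echo 550 acoustic dispenser at five concentrations spanning a 10,000-fold range, 1,500 ovarian cancer or normal ovarian cells were added per well, and cells were kept 3 days at 37°C, 5% CO2. Viability was then measured with CellTiter-Glo luminescence on a PHERAstar FS.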

COV362 = tested on: COV362
How it was run: as §1

OV90 = tested on: OV90
How it was run: as §1

JHOS2 = tested on: JHOS2
How it was run: as §1

OVCAR4 = tested on: OVCAR4
How it was run: as §1

CAOV3 = tested on: CAOV3
How it was run: as §1

Kuramochi = tested on: Kuramochi
How it was run: as §1

OVCAR8 = tested on: OVCAR8
How it was run: as §1

HOSE2C = tested on: HOSE2C
How it was run: as §1

OVCAR5 = tested on: OVCAR5
How it was run: as §1

Ovsaho = tested on: Ovsaho
How it was run: as §1

COV318 = tested on: COV318
How it was run: as §1

Row | Compound | drug sensitivity score (HOSE1C) | drug sensitivity score (COV362) | drug sensitivity score (OV90) | drug sensitivity score (JHOS2) | drug sensitivity score (OVCAR4) | drug sensitivity score (CAOV3) | drug sensitivity score (Kuramochi) | drug sensitivity score (OVCAR8) | drug sensitivity score (HOSE2C) | drug sensitivity score (OVCAR5) | drug sensitivity score (Ovsaho) | drug sensitivity score (COV318)
1 | NC(=O)c1cccc(-c2cccc(OC(=O)NC3CCCCC3)c2)c1 [URB597] | 0 | 0 | 0 | 0 | 0 | 0 | 0 | 0 | 0 | 0 | 0 | 0
2 | CC(C)Nc1cc(-c2c[nH]c(C(=O)N[C@H](CO)c3cccc(Cl)c3)c2)c(Cl)cn1 [Ulixertinib] | 0 | 1.9 | 14 | 3.8 | 1.1 | 8 | 7.7 | 3.6 | 2.2 | 7.8 | 11.5 | 0.9
3 | CC[C@@H]1CN(C(=O)NCC(F)(F)F)C[C@@H]1c1cnc2cnc3[nH]ccc3n12 [Upadacitinib] | 0 | 0.2 | 1.3 | 0 | 0 | 0 | 0.8 | 0 | 0 | 0 | 0 | 2.1
4 | Cn1ncc(Cl)c1-c1cc(C(=O)N[C@H](CN)Cc2ccc(F)c(F)c2)oc1Cl [Uprosertib] | 3.2 | 0 | 0.7 | 0 | 0 | 0.9 | 1 | 0 | 2.1 | 0.9 | 0.6 | 0.4
5 | CS(=O)(=O)c1ccc(-c2cnc(N)c(C(=O)Nc3ccccc3)n2)cc1 [VE-821] | 4 | 0 | 0 | 0 | 0 | 0 | 0 | 0 | 1.7 | 0 | 1.2 | 0
6 | O=C(O)CC1CC(c2ccccc2)=NO1 (stereo not drawn) [VGX-1027] | 0 | 0 | 0 | 0 | 0 | 0 | 0 | 0 | 0 | 0 | 0 | 0
7 | C=CC(=O)N1CC/C(=C\c2ccc(F)c([N+](=O)[O-])c2)C(=O)/C(=C/c2ccc(F)c([N+](=O)[O-])c2)C1 [VLX1570] | 23.3 | 9.4 | 16.8 | 17.5 | 18.7 | 18.7 | 18 | 26.8 | 21.4 | 17.1 | 25 | 12.2
8 | CNC(=O)c1ccccc1Nc1cc(Nc2ccc(N3CCOCC3)cc2OC)ncc1C(F)(F)F [VS-4718] | 3.6 | 4.1 | 9.2 | 5.5 | 6.8 | 6.1 | 11.6 | 4.4 | 6 | 8 | 11.4 | 5.6
9 | CCCC(CCC)C(=O)O [Valproic acid] | 0 | 0 | 0 | 0 | 0 | 0 | 0 | 0 | 0 | 0 | 0 | 0
10 | CCCCC(=O)OCC(=O)[C@]1(O)Cc2c(O)c3c(c(O)c2[C@@H](O[C@H]2C[C@H](NC(=O)C(F)(F)F)[C@H](O)[C@H](C)O2)C1)C(=O)c1c(OC)cccc1C3=O [Valrubicin] | 10.1 | 2.4 | 7.7 | 6.6 | 3.8 | 10.8 | 6.6 | 9.5 | 8.3 | 6.2 | 10.9 | 4.4
11 | COc1cc2/c(=N/c3ccc(Br)cc3F)nc[nH]c2cc1OCC1CCN(C)CC1 [Vandetanib] | 0 | 1.3 | 0 | 0.6 | 1.2 | 1.7 | 2.9 | 0 | 0 | 1.5 | 4.7 | 0.6
12 | CCc1c(C(=O)C(N)=O)c2c(OCC(=O)O)cccc2n1Cc1ccccc1 [Varespladib] | 0 | 0 | 0 | 0.1 | 0 | 0 | 0 | 0 | 0 | 0 | 0 | 0
13 | C[C@@H]1COC(Nc2ccc3ncnc(Nc4ccc(OCc5nccs5)c(Cl)c4)c3c2)=N1 [Varlitinib] | 0.4 | 0 | 0 | 0 | 1.9 | 3.2 | 0.4 | 5.4 | 0.2 | 4.1 | 0.3 | 0
14 | Clc1ccc(Nc2nnc(Cc3ccncc3)c3ccccc23)cc1 [Vatalanib] | 0 | 0 | 0 | 0 | 0 | 0 | 0 | 0 | 0 | 0 | 0.7 | 0
15 | C[C@]1(c2nc3c(C(N)=O)cccc3[nH]2)CCCN1 [Veliparib] | 0 | 0 | 0.7 | 0 | 0 | 0 | 0 | 0.2 | 0 | 1.3 | 0.4 | 0
16 | CCCS(=O)(=O)Nc1ccc(F)c(C(=O)c2c[nH]c3ncc(-c4ccc(Cl)cc4)cc23)c1F [Vemurafenib] | 0.4 | 0 | 0 | 0 | 0 | 0 | 0.3 | 0.5 | 1.1 | 0.5 | 0 | 0
17 | CC1(C)CCC(CN2CCN(c3ccc(C(=O)NS(=O)(=O)c4ccc(NCC5CCOCC5)c([N+](=O)[O-])c4)c(Oc4cnc5[nH]ccc5c4)c3)CC2)=C(c2ccc(Cl)cc2)C1 [Venetoclax] | 0 | 0 | 0 | 2.8 | 0 | 0 | 0 | 0 | 0 | 0 | 0 | 0
18 | O=C(/C=C\n1cnc(-c2cc(C(F)(F)F)cc(C(F)(F)F)c2)n1)NNc1ccccn1 [Verdinexor] | 22.2 | 4.7 | 5.1 | 7 | 5.4 | 9.2 | 3.1 | 10.9 | 6.1 | 7.5 | 7.6 | 3.6
19 | CCCCOc1nc(N)c2c(n1)N(Cc1cccc(CN3CCCC3)c1)CC(=O)N2 [Vesatolimod] | 0 | 0 | 0 | 0 | 0.4 | 0 | 1 | 0 | 0 | 0 | 0 | 0
20 | COc1cccc(-c2ccc(NC(=O)C3=C(C(=O)O)CCC3)c(F)c2)c1 [Vidofludimus] | 6 | 0 | 0 | 0.1 | 0 | 0 | 0 | 2.1 | 3.9 | 0 | 0.2 | 0
21 | CC[C@]1(O)C[C@@H]2CN(CCc3c([nH]c4ccccc34)[C@@](C(=O)OC)(c3cc4c(cc3OC)N(C)[C@H]3[C@@](O)(C(=O)OC)[C@H](OC(C)=O)[C@]5(CC)C=CCN6CC[C@]43[C@@H]65)C2)C1 [Vinblastine] | 13.8 | 2.3 | 18.5 | 3.7 | 9.1 | 22.4 | 4.4 | 8.6 | 12.3 | 3 | 5.3 | 1.1
22 | CC[C@]1(O)C[C@H]2CN(CCc3c([nH]c4ccccc34)[C@@](C(=O)OC)(c3cc4c(cc3OC)N(C=O)[C@H]3[C@@](O)(C(=O)OC)[C@H](OC(C)=O)[C@]5(CC)C=CCN6CC[C@]43[C@@H]65)C2)C1 [Vincristine] | 16.3 | 3.3 | 16.9 | 2.7 | 6.6 | 21.3 | 3.1 | 8.9 | 17.7 | 4.5 | 5.9 | 1.9
23 | CC[C@]12C=CCN3CC[C@@]4(c5cc([C@@]6(C(=O)OC)C[C@@H]7C[C@@H](C(C)(F)F)CN(Cc8c6[nH]c6ccccc86)C7)c(OC)cc5N(C)[C@H]4[C@@](O)(C(=O)OC)[C@@H]1OC(C)=O)[C@@H]32 [Vinflunine] | 3.6 | 1.3 | 3.3 | 2.4 | 2.1 | 4.3 | 1.9 | 4.1 | 3.6 | 3.4 | 1.8 | 0.7
24 | CCC1=C[C@@H]2CN(C1)Cc1c([nH]c3ccccc13)[C@@](C(=O)OC)(c1cc3c(cc1OC)N(C)[C@H]1[C@@](O)(C(=O)OC)[C@H](OC(C)=O)[C@]4(CC)C=CCN5CC[C@]31[C@@H]54)C2 [Vinorelbine] | 30.2 | 8.9 | 26.5 | 9.7 | 12.7 | 16.4 | 12.6 | 27.6 | 32.1 | 19.5 | 19.9 | 8.1
25 | CS(=O)(=O)c1ccc(C(=O)Nc2ccc(Cl)c(-c3ccccn3)c2)c(Cl)c1 [Vismodegib] | 3.8 | 0 | 0.1 | 0 | 0 | 0 | 0.1 | 0 | 0 | 0.1 | 0 | 0
26 | CNC(=O)c1cccc(-c2ccc3c(N4CCOC[C@@H]4C)nc(N4CCOC[C@@H]4C)nc3n2)c1 [Vistusertib] | 14.5 | 2.8 | 15.1 | 7.7 | 11.5 | 10.2 | 11.5 | 10.2 | 10.3 | 13.3 | 15.4 | 10
27 | CC[C@@H]1C(=O)N(C)c2cnc(Nc3ccc(C(=O)N[C@H]4CC[C@H](N5CCN(CC6CC6)CC5)CC4)cc3OC)nc2N1C(C)C [Volasertib] | 9.7 | 3.2 | 11.5 | 7.1 | 4.4 | 13.1 | 7.3 | 15.5 | 6.3 | 12.2 | 10.4 | 4.1
28 | O=C(CCCCCCC(=O)Nc1ccccc1)NO [Vorinostat] | 15.9 | 3.2 | 8 | 5.3 | 4.7 | 8.6 | 4.7 | 9.7 | 10.7 | 10.8 | 2.7 | 4.3
29 | Oc1nc(-c2ccc(C(F)(F)F)cc2)nc2c1CSCC2 [XAV-939] | 0 | 0 | 0 | 0.1 | 3.6 | 0 | 1.5 | 0 | 0 | 0 | 2.3 | 0
